US20080104722A1, “DISEASE MODEL ANIMALS OF METABOLIC SYNDROME AND A METHOD OF SCREENING PREVENTIVE AND THERAPEUTIC AGENTS FOR METABOLIC SYNDROME USING THE SAME” (REDOX BIOSCIENCE INC., priority 2006, published 2008)

How the values were obtained:
Wild type mice = experiment: Glucose or oleic acid supplementation in drinking water while deprived of other food, wild type mice; assay type: in vivo, mouse; settings: 20% glucose or 10% oleic acid in drinking water, deprived of other food (data not shown)
Text: (§1) Glucose and fatty acids are known to be the major energy sources from foods. The anomaly observed in TBP-2^−/− mice strongly indicates the occurrence of nutritional dysmetabolism. To examine this hypothesis, these mice were housed with free access to 20% glucose or 10% oleic acid in drinking water, while deprived of other food.

TBP-2^−/− mice = experiment: Glucose or oleic acid supplementation in drinking water while deprived of other food, TBP-2 knockout mice; assay type: in vivo
Protocol: Blood was collected from the tail veins. Triglyceride concentrations were measured using a Wako Triglyceride Test kit according to the manufacturer's instructions (Wako Pure Chemical Industries, Ltd.). Serum insulin levels were quantified using a Mouse Insulin ELISA kit (Shibayagi Co. Ltd.). The other blood assays were performed by Falco Biosystems Ltd. The liver was removed under anesthesia at appropriate time points, and paraffin sections were prepared. Standard hematoxylin-eosin and Oil Red O staining was performed.
as §1

CCCCCCCC/C=C\CCCCCCCC(=O)O [oleic acid]
survival of wild type mice (Wild type mice): able to survive | rescue (survival) of TBP-2^−/− mice (TBP-2^−/− mice; 10% oleic acid in drinking water, deprived of other food (FIG. 9A)): not rescued | symptoms compared with fasted TBP-2^−/− mice (TBP-2^−/− mice; oleic acid supplementation (data not shown)): identical symptoms
